Experimental data: US9636311B2, “N,N′-di-1 naphthylguanidine HCl (NAGH) and N,N′-di-p-nitrophenylguanidine HCl (NAD) treatment for stroke at delayed timepoints” (University of South Florida, priority 2012, dated 2017)
“Also recorded” adds a separate entry of the source. Like-named read-outs stand apart in the source and are kept apart here.

Columns and labels:
rats following MCAO [1] = experiment: Brain infarction quantification (Nissl thionin) after MCAO; type: in vivo, rat; details: s.c. daily for 3 days from 24 h post-MCAO (NAGH 0.86, NAD 2.8, Bromo-DTG 8.2, Chloro-DTG 8.5 mg/kg/day); 30 days post MCAO
Procedure: All animal procedures were performed according to the University of South Florida guidelines for the care and use of animals and protocols were reviewed and approved by the Institutional Animal Care and Use Committee and adhered to the NIH guidelines for the care and use of animals. Adult male Sprague Dawley rats (Harlan) weighing about 250-300 g at the time of surgery were used for the study. All animals were housed two per cage in a temperature controlled room, under a 12 hour light-dark cycle, and given access to water and food ad libitum. Animals were monitored daily for wellness and biweekly for weight loss. For the NAGH studies, a total of 84 animals were randomly assigned to 2 groups: MCAO only (n=42) and rat treated with NAGH (n=42) beginning 24 hour after MCAO.
(§1) MCAO surgeries were performed as described elsewhere (Vendrame M, Cassady C J, Newcomb J, Butler T, Pennypacker K R, Zigova T, et al. Stroke. 2004; 35:2390-2395). Briefly, rats were anesthetized with isoflurane, and the right common carotid and external carotid arteries were exposed using blunt dissection techniques. The vagus nerve was separated from common carotid artery and the external carotid artery was ligated proximally, and transected near the bifurcation. An embolus 40 mm in length (4.0 siliconized monofilament) was inserted into the external carotid artery and fed distally into the origin of the middle cerebral artery (˜25 mm from insertion) through the internal carotid artery. Blood samples were taken and analyzed using an i-STAT handheld analyzer for hemoglobin, hematocrit, ionized calcium, glucose, sodium, potassium, pH, pCO2, HCO3, TCO2, base excess, pO2, and O2. Cerebral blood flow was recorded using a Laser Doppler Monitor (Moor Instruments) to verify occlusion. Afterwards, the embolus was ligated permanently into the vessel and the neck incision was closed. Animals were treated with Ketoprofen IM (10 mg/kg) for three days post-surgery.
(§2) For the NAGH studies, vehicle or NAGH were prepared fresh each day. Daily subcutaneous injections (s.c) were administered beginning about 24 hours after MCAO and continued daily to about 72 hours post-surgery (FIG. 1). Animals received a total of 3 injections. A total of 84 animals were randomly assigned into 2 groups: Rats treated with vehicle (40% DMSO in sterile saline, n=42), or rats treated with 0.86 mg/kg NAGH (n=42).
For the studies with other compounds based on the structure of DTG, twenty-four hours after MCAO, the rats began a sigma agonist treatment regimen. Vehicle or drug was prepared fresh each day. […]
Infarct size was determined by Nissl thionin staining. […]

microglial cells [2] = experiment: Inhibition of microglial migration evoked by ATP; type: cell-based
Procedure: (§3) FIG. 8 is a series of images confirming NAGH acts as a sigma receptor agonist. A) Concentration-response relationship for NAGH (closed circles) and DTG (open circles) inhibition of microglial migration evoked by 100 μM ATP. […] Points represent mean (±SEM) and for all points, n>9. B) Bar graph of the mean (±SEM) number of microglial cells migrating in response to 100 μM ATP when ATP was added alone (DMEM) or in the presence of 100 μM NAGH. Microglia were further exposed to no σ antagonist (Control), or the σ-1 antagonist, BD-1047 (10 μM, BD-1047), or the σ-2 antagonist, rimcazole (10 μM, Rimcazole). Asterisks denote significant difference between DMEM and NAGH within Control, BD-1047 and Rimcazole groups, respectively. Pound symbols indicate significant difference between Control, BD-1047 and Rimcazole within DMEM and NAGH groups, respectively. P<0.05 and n=24 for all groups.
as §3, with “8A illustrates the concentration-response” for “8 is a series of images confirming NAGH acts as a sigma receptor agonist. A) Concentration-response”, “FIG. 8B depicts a bar” for “B) Bar”

microglial cells [3] = details: 24 hours after in vitro ischemia; cited from earlier work
[4] = test system: permanent middle cerebral artery occlusion (MCAO); details: administered beginning 24 hours after permanent MCAO; cited from earlier work
rats following MCAO [5] = experiment: Step test after MCAO; type: in vivo, rat; details: NAD 2.8 mg/kg s.c. x3; 30 days post-stroke; p<0.05
Procedure: (§4) For NAD testing, a total of 32 animals were randomly assigned into 2 groups: Vehicle (n=16), and rat treated with 2.8 mg/kg NAD (n=16). Vehicle consisted of 40% DMSO in sterile saline.
(§5) Rats were held tightly with one forelimb placed on a hard flat table top and then pulled for a length of 1 meter in the direction of the placed forelimb at constant velocity. The test was repeated with the opposite forelimb. This was repeated three times for each forelimb and the percent of contralateral forelimb paw was obtained. The bias was standardized as the absolute number of steps with the contralateral paw minus 100.

rats following MCAO [6] = experiment: Spontaneous activity (automated activity monitor) after MCAO; type: in vivo, rat; details: NAD 2.8 mg/kg s.c. x3; 30 days after MCAO; day and night
Procedure: as §1, §2, §4
Spontaneous Activity was measured during both the day (1 hr) and night (12 hrs) using an automated activity monitor (VersaMax, Accuscan Instruments, Inc). Spontaneous Activity was measured prior to stroke to establish the normal baseline for each individual animal as well as 1 month after the MCAO. The animals were placed in a Plexiglas box and allowed to roam freely. There is a three dimensional infrared array in this box and when a beam is broken, activity is recorded. A total of sixteen parameters were measured including: Vertical movement, Horizontal movement, and Stereotypic activity were selected for analysis: Horizontal activity (HA), Total distance travelled (TD), Number of movements (MVN), Movement time (MVT), Vertical activity (VA), Number of vertical movements (VMN), vertical time (VT), Stereotype counts (SC), Number of Stereotypy (SN), Stereotypy time (ST), Clockwise rotation (CR), counterclockwise rotation (CCR), Margin distance (MD), Marginal time (MT), Center distance (CD), and Center time (CT). The data are presented as mean+SEM of percent of baseline behavior.

rats following MCAO [7] = experiment: Battery of behavioral tests after MCAO (corner, grip, rotorod, step, cylinder); type: in vivo, rat; details: NAD 2.8 mg/kg s.c. x3; 30 days after MCAO
Procedure: After surgery, animals were tested was performed once before surgery and 30 days post-surgery for motor coordination and behavior. All behavioral data are reported as mean+sem.
Rotorod test, which measures motor coordination, was conducted using Omni-rotor Rotorod (Omnitech, Inc). Animals were trained on the accelerating rotorod apparatus for 3 consecutive days before times were collected. Animals were placed on the revolving rod and instrument was set to accelerate to a maximum speed of 40 rpm over 180 seconds. Latency to fall (in seconds) was recorded. This test was performed in triplicate once per day for 3 days.
as §5
The animals were placed in a transparent cylinder about 20 cm in diameter and 30 cm in height with an open top. The number times each paw was placed on the sides of the cylinder was counted a5 minute period. The test was videotaped and a mirror was placed behind the cylinder allowing the experimenter to see the placement of paws when the animal was facing away from the camera.
A 30 degree angle was formed using the edges of two plexiglass boards. The animals were placed halfway into the corner facing the corner and the total number of left and right turns was recorded. A total of 10 trials were conducted and videotaped. A non-lesioned animal turned randomly toward the left or right, while a lesioned animal preferentially turned toward the non-impaired (left) side. Results were reported as the percentage of ipsilateral (injury site, right side) versus contralateral turns.
Motor deficits were assessed using a grip strength meter (Bioseb, # BIO-GS3). […] Grip strength was recorded in Newtons (N). […]

rats following MCAO [8] = experiment: Grip strength test after MCAO; type: in vivo, rat; details: NAD 2.8 mg/kg s.c. x3; 30 days after MCAO; p=0.0007
Procedure: as §4
Motor deficits were assessed using a grip strength meter (Bioseb, # BIO-GS3). The animals were held so the front left paw could firmly grasp the bar of the strength meter, and then pulled straight backward until its front paw released its grasp. Grip strength was recorded in Newtons (N). This test was repeated 3 times.

stroke = details: Ruscher, Shamloo et al. 2011; cited from earlier work
[9] = migration evoked by 100 μM ATP, two-component Langmuir-Hill fit

Cl.N=C(Nc1ccc(Br)cc1)Nc1ccc(Br)cc1 [Bromo-DTG, N,N′-di-p-Bromophenylguanidine hydrochloride]
Infarct volume vs vehicle (rats following MCAO [1]): did not show significant effects over vehicle

Cl.N=C(Nc1cccc(Cl)c1)Nc1cccc(Cl)c1 [Chloro-DTG, N,N′-di-m-Chlorophenylguanidine hydrochloride]
Infarct volume vs vehicle (rats following MCAO [1]): did not show significant effects over vehicle

Cc1ccccc1NC(=N)Nc1ccccc1C [DTG, 1,3-di-o-tolylguanidine, reference compound]
Emax, high affinity component (microglial cells [2]; [9]): 0.38 | Emax, low affinity component (microglial cells [2]; [9]): 0.62 | Hill coefficient, high affinity component (microglial cells [2]; [9]): 0.59 | Hill coefficient, low affinity component (microglial cells [2]; [9]): 1.7 | IC50 (microglial cells [2]; migration evoked by 100 μM ATP, two-component Langmuir-Hill fit, read-out: IC50, high affinity component): 0.76 µM | IC50 (microglial cells [2]; read-out: IC50, low affinity component): 80 µM | Microglial cell death (microglial cells [3]): significantly reduced microglial cell death | Infarct size 96 hrs post-MCAO [4]: decreased infarct volume; also recorded: decreased infarct size | Long-term functional recovery [4]: failed to improve long-term functional recovery

Cl.N=C(Nc1ccc([N+](=O)[O-])cc1)Nc1ccc([N+](=O)[O-])cc1 [NAD, N,N′-di-p-Nitrophenylguanidine hydrochloride]
Step test, steps with impaired paw compared to unimpaired paw (rats following MCAO [5]): 100.3 ± 5.6% | Activity vs MCAO-only animals (rats following MCAO [6]): less activity than MCAO-only animals | Overall behavioral data vs vehicle, all tests except Grip Strength and Step test (rats following MCAO [7]): no significant difference | Average grip strength vs non-treated rats (rats following MCAO [8]): significantly higher | Infarct volume vs vehicle (rats following MCAO [1]): not significant

COc1ccc(CCN2CCN(CCCc3ccccc3)CC2)cc1OC [SA4503]
Infarct size (stroke): without decreasing infarct size | Sensorimotor function (stroke): improved sensorimotor function
